Data published in US20210095293A1, “METHODS OF TREATING CANCERS WITH GPR132 INHIBITORS” (The Board of Regents of the University of Texas System, priority 2016, published 2021).

Key:
Gpr132 = assay: calcium mobilization assay in BMDMs; format: cell-based, mouse; conditions: WT or Gpr132-KO BMDMs stimulated with 25 mM
Description: FIG. 27. […] WT or Gpr132-KO BMDMs were stimulated with 25 mM lactate (Left) or HCl (Right) (n=3).
To determine whether Gpr132 is required for lactate signaling in macrophages, a calcium mobilization assay was performed. […] First, lactate levels in the CM of distinct cancer cell lines were measured using a Vitros 250 chemistry analyzer. […] Second, the effects of blocking lactate production from EO771 and 4T1.2 cells by oxamic acid, an inhibitor of lactate dehydrogenase was tested.

macrophages = assay: M2 marker expression in macrophages (Western blot, RT-qPCR, flow cytometry); format: cell-based, mouse
Description: After blocking with 10% BSA for 10 min, cells were incubated with anti-CD206 (Rabbit polyclonal, Abcam) or anti-Gpr132 (Rabbit polyclonal, Sigma) antibodies (1:100) for 30 min at 4° C., washed with cold PBS, and then incubated with FITC-conjugated secondary antibodies (1:100) for 30 min at 4° C. After washing twice using cold PBS, cells were analyzed by flow cytometer (Becton Dickinson). RNA was isolated from cells or mouse tissues using Trizol (Invitrogen) following the manufacturer's instructions. RNA (200-500 ng) was first treated with RNase-free DNase I using the DNA-free kit (Ambion) to remove all genomic DNA, and then reverse-transcribed into cDNA using an ABI High Capacity cDNA RT Kit (Invitrogen). The cDNA was analyzed using real-time quantitative PCR (SYBR Green, Invitrogen) with an Applied Biosystems 7900 Sequence Detection System. Each reaction was performed in triplicate in a 384-well format. The expression of each gene was normalized by that of mouse ribosomal protein L19. Samples of 20 μg protein were applied to SDS polyacrylamide gels. After protein transfer, membranes were incubated with antibodies for […] (rabbit polyclonal, Santa Cruz Biotechnology), CD206, Gpr132, or β-actin (mouse monoclonal, Sigma) (1:1000) overnight at 4° C. Membranes were washed, and then incubated with HRP-conjugated secondary antibodies (1:1000) for 1 hr at room temperature before signal detection by chemiluminescence (Pierce). Densitometric quantification was performed by Image-Pro Plus 6.0 software (Media Cybernetics). PathScan Akt Signaling Antibody Array (Cell Signaling) was incubated with macrophage proteins and analyzed following kit instructions.

CC(O)C(=O)O (stereo not drawn) [lactate]
effect of Gpr132 deletion on triggered calcium mobilization (Gpr132): compromised
expression of M2 markers (CD206, GM-CSF, CCL17) in WT macrophages (macrophages; exogenous lactate 5 mM 24 hrs (Western) or 25 mM 6 hrs (RT-qPCR), WT): increased
effects on M2 markers in Gpr132-KO macrophages (macrophages; exogenous lactate, Gpr132-KO): absent or largely attenuated
